From patent US8143408B2, “N-(8-heteroaryltetrahydronaphtalene-2yl) or N-(5-heteroarylchromane-3-yl) carboxamide derivatives for the treatment of pain” (AstraZeneca AB, priority 2007, dated 2012)
pIC50: −log10 of the molar value.

Target: T1, Nav1.7 voltage-gated sodium channel (Homo sapiens, UniProt Q15858)
T1 construct: Gene(s) encoding the full-length protein of the voltage-gated sodium channel of interest are cloned and expressed; expressed in transfected cells
Assay: Whole-cell voltage clamp electrophysiology assay
Format: cell-based
Settings: cells stably expressing the voltage-gated sodium channel of interest
Outline: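 Cells expressing full-length channel, exposed to drug by integrated pipetting on automated patch-clamp platforms or by microperfusion in conventional whole-cell patch clamp. Channels activated by a voltage protocol depolarising from a defined holding potential; buffers per platform manufacturer.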

T1 sequence (Q15858 whole entry): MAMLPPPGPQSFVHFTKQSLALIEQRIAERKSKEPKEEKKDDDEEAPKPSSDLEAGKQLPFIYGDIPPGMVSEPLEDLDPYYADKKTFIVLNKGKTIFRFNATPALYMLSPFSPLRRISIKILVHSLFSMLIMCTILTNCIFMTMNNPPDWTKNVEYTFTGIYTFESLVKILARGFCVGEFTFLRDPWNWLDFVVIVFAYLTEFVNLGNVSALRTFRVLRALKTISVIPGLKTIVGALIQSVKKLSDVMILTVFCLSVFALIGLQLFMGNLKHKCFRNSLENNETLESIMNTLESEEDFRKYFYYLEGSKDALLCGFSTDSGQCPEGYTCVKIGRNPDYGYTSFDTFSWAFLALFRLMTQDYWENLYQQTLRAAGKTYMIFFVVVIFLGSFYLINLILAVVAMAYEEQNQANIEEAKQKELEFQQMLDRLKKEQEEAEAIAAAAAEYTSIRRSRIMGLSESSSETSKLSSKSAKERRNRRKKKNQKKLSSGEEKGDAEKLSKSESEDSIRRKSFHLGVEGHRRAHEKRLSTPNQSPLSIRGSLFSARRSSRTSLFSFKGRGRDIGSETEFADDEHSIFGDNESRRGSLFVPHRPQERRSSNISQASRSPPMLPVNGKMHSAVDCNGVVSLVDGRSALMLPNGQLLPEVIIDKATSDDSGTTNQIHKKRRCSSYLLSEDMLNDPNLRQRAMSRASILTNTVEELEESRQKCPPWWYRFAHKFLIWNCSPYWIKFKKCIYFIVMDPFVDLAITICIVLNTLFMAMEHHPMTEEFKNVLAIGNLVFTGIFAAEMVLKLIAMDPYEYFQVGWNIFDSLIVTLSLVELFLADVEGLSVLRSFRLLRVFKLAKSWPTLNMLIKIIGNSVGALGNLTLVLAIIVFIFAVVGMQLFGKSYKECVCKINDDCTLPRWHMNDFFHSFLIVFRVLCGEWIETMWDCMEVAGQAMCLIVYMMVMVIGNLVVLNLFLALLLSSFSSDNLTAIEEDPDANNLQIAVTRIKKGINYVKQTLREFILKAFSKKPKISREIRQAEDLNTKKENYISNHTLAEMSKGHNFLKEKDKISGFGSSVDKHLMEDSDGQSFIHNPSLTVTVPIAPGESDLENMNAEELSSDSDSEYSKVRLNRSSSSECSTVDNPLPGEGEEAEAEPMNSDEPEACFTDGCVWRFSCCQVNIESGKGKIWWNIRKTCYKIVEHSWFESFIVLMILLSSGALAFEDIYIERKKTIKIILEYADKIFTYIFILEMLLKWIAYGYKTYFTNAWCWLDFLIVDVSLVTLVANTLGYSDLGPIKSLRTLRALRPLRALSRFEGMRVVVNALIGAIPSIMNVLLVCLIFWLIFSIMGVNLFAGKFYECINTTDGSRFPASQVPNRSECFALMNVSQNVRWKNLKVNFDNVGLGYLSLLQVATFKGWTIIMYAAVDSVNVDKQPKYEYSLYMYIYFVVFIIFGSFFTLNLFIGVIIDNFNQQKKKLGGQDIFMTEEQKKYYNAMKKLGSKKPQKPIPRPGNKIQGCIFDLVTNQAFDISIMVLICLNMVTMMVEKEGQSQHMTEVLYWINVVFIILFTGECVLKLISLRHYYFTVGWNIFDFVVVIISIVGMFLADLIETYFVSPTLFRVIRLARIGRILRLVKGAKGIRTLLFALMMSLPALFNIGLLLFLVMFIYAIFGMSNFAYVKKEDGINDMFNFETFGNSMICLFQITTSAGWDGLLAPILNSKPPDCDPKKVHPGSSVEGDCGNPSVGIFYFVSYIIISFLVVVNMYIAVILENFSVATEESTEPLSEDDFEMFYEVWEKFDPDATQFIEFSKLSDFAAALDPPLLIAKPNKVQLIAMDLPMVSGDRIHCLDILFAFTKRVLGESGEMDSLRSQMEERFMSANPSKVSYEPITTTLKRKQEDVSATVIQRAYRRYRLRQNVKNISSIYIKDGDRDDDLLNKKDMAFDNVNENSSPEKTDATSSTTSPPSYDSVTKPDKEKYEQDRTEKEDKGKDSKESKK

Row | pIC50 | Compound
1 | 5.50 | CNC(=O)c1cc(-c2cccc3c2C[C@H](NC(=O)c2ccc(OC4CCOCC4)nc2)CO3)cnc1OC [Example 206, 2-methoxy-N-methyl-5-[(3S)-3-({[6-(tetrahydro-2H-pyran-4-yloxy)pyridin-3-yl]carbonyl}amino)-3,4-dihydro-2H-chromen-5-yl]nicotinamide]
2 | 5.40 | COc1ncc(-c2cccc3c2C[C@H](NC(=O)c2ccc(OC(C)C)nc2)CO3)cc1C(=O)N(C)C [Example 207, 5-[(3S)-3-{[(6-isopropoxypyridin-3-yl)carbonyl]amino}-3,4-dihydro-2H-chromen-5-yl]-2-methoxy-N,N-dimethylnicotinamide]
3 | 5.80 | COc1ncc(-c2cccc3c2C[C@H](NC(=O)c2ccc(OCC(F)(F)F)nc2)CO3)cc1C(=O)N(C)C [Example 208, 2-methoxy-N,N-dimethyl-5-[(3S)-3-({[6-(2,2,2-trifluoroethoxy)pyridin-3-yl]carbonyl}amino)-3,4-dihydro-2H-chromen-5-yl]nicotinamide]
4 | 5.10 | CN(C)C(=O)c1ncc(-c2cccc3c2C[C@H](NC(=O)c2ccc(OCCOCC(F)(F)F)nc2)CO3)cn1 [Example 209, N,N-dimethyl-5-{(3S)-3-[({6-[2-(2,2,2-trifluoroethoxy)ethoxy]pyridin-3-yl}carbonyl)amino]-3,4-dihydro-2H-chromen-5-yl}pyrimidine-2-carboxamide]
5 | 7.00 | O=C(N[C@@H]1COc2cccc(-c3ccc(CO)nc3)c2C1)c1ccc(OCCOCC(F)(F)F)nc1 [Example 210, N-{(3S)-5-[6-(hydroxymethyl)pyridin-3-yl]-3,4-dihydro-2H-chromen-3-yl}-6-[2-(2,2,2-trifluoroethoxy)ethoxy]nicotinamide]
6 | 6.70 | O=C(N[C@@H]1COc2cccc(-c3ccc(CO)nc3)c2C1)c1ccc(OCCCF)nc1 [Example 211, 6-(3-fluoropropoxy)-N-{(3S)-5-[6-(hydroxymethyl)pyridin-3-yl]-3,4-dihydro-2H-chromen-3-yl}nicotinamide]
7 | 7.00 | O=C(N[C@@H]1COc2cccc(-c3ccc(CO)nc3)c2C1)c1ccc(OCC(F)(F)F)nc1 [Example 212, N-{(3S)-5-[6-(hydroxymethyl)pyridin-3-yl]-3,4-dihydro-2H-chromen-3-yl}-6-(2,2,2-trifluoroethoxy)nicotinamide]
8 | 6.50 | O=C(N[C@@H]1COc2cccc(-c3cnc(CO)cn3)c2C1)c1ccc(OCCOCC(F)(F)F)nc1 [Example 213, N-{(3S)-5-[5-(hydroxymethyl)pyrazin-2-yl]-3,4-dihydro-2H-chromen-3-yl}-6-[2-(2,2,2-trifluoroethoxy)ethoxy]nicotinamide]

The remaining lines, values behind:

Row | Compound | pIC50
9 | O=C(N[C@@H]1COc2cccc(-c3cnc(C4CC4)nc3)c2C1)c1ccc(C(=O)NCCC(F)(F)F)nc1 [Example 197, N^5-[(3S)-5-(2-cyclopropylpyrimidin-5-yl)-3,4-dihydro-2H-chromen-3-yl]-N^2-(3,3,3-trifluoropropyl)pyridine-2,5-dicarboxamide] | 6.80
10 | CN(CCC(F)(F)F)C(=O)c1ccc(C(=O)N[C@@H]2COc3cccc(-c4cnc(C5CC5)nc4)c3C2)cn1 [Example 198, N^5-[(3S)-5-(2-cyclopropylpyrimidin-5-yl)-3,4-dihydro-2H-chromen-3-yl]-N^2-methyl-N^2-(3,3,3-trifluoropropyl)pyridine-2,5-dicarboxamide] | 6.30
11 | O=C(N[C@@H]1COc2cccc(-c3cnc(C4CC4)nc3)c2C1)c1ccn(CCC(F)(F)F)c(=O)c1 [Example 199, N-[(3S)-5-(2-cyclopropylpyrimidin-5-yl)-3,4-dihydro-2H-chromen-3-yl]-2-oxo-1-(3,3,3-trifluoropropyl)-1,2-dihydropyridine-4-carboxamide] | 6.30
12 | COc1ncc(-c2cccc3c2C[C@H](NC(=O)c2cnc(NCCC(F)(F)F)nc2)CO3)cc1F [Example 200, N-[(3S)-5-(5-fluoro-6-methoxypyridin-3-yl)-3,4-dihydro-2H-chromen-3-yl]-2-[(3,3,3-trifluoropropyl)amino]pyrimidine-5-carboxamide] | 6.50
13 | Cc1ncc(-c2cccc3c2C[C@H](NC(=O)c2cnc(NCCC(F)(F)F)nc2)CO3)cn1 [Example 201, N-[(3S)-5-(2-methylpyrimidin-5-yl)-3,4-dihydro-2H-chromen-3-yl]-2-[(3,3,3-trifluoropropyl)amino]pyrimidine-5-carboxamide] | 6.40
14 | Cc1cnc(-c2cccc3c2C[C@H](NC(=O)c2ccc(OCCOCC(F)(F)F)nc2)CO3)c(C)n1 [Example 202, N-[(3S)-5-(3,5-dimethylpyrazin-2-yl)-3,4-dihydro-2H-chromen-3-yl]-6-[2-(2,2,2-trifluoroethoxy)ethoxy]nicotinamide] | 6.10
15 | Cc1ncc(-c2cccc3c2C[C@H](NC(=O)c2ccc(COCC(F)(F)F)nc2)CO3)cn1 [Example 203, N-[(3S)-5-(2-methylpyrimidin-5-yl)-3,4-dihydro-2H-chromen-3-yl]-6-[(2,2,2-trifluoroethoxy)methyl]nicotinamide] | 6.70
16 | COc1ncc(-c2cccc3c2C[C@H](NC(=O)c2ccc(OC4CCOCC4)nc2)CO3)cc1C(=O)N(C)C [Example 204, 2-methoxy-N,N-dimethyl-5-[(3S)-3-({[6-(tetrahydro-2H-pyran-4-yloxy)pyridin-3-yl]carbonyl}amino)-3,4-dihydro-2H-chromen-5-yl]nicotinamide] | 5.10
17 | CNC(=O)c1cc(-c2cccc3c2C[C@H](NC(=O)c2ccc(OC(C)C)nc2)CO3)cnc1OC [Example 205, 5-[(3S)-3-{[(6-isopropoxypyridin-3-yl)carbonyl]amino}-3,4-dihydro-2H-chromen-5-yl]-2-methoxy-N-methylnicotinamide] | 5.90
